From patent US9656988B2 (Pharmacyclics LLC, priority 2013, dated 2017) come the findings set out here.

In this experiment the target is BTK (Homo sapiens (Human), UniProt Q06187). In words: Btk in vitro inhibitory activity (one of Method A TR-FRET, Method B electrophoretic mobility shift, Method C radiometric filter binding). Format: biochemical. (In general: A gel shift assay detects complexes by their altered migration in electrophoresis.)
Where [1] appears, read: determined using one of the methods of Example 355a, 355b and 355c, read-out: BTK IC50.

Where two headings read alike, the source gives them in different places.

Sequence of BTK (Q06187 whole entry): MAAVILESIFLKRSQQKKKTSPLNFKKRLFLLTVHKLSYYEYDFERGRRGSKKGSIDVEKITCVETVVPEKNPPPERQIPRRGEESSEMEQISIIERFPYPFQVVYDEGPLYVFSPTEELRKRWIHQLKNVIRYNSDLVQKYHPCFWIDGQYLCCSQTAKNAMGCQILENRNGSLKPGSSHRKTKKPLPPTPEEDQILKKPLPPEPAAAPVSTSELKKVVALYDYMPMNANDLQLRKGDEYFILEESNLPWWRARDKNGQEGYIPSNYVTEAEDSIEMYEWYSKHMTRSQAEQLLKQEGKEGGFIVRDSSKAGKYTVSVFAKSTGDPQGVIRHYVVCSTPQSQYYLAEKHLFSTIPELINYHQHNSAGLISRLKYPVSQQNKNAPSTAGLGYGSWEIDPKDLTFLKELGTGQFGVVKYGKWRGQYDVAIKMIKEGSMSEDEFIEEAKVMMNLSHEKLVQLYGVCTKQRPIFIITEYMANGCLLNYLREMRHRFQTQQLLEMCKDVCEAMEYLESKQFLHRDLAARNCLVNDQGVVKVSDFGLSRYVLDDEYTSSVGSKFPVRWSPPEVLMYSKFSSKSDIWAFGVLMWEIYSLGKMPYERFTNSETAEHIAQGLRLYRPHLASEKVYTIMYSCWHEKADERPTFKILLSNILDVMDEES

In general, IC50 refers to the concentration needed to halve the response being measured. In the case of `COc1ccc(C(=O)N[C@@H]2CCCN(c3cnc(C(N)=O)c(Nc4ccc(C5CCN(C6CC6)CC5)cc4)n3)C2)cc1` [Example 133, (R)-3-(4-(1-cyclopropylpiperidin-4-yl)phenylamino)-5-(3-(4-methoxybenzamido)piperidin-1-yl)pyrazine-2-carboxamide], the 50% inhibitory concentration (IC50) runs as follows: under setting [1], less than 10 nM; (read-out: Btk (IC50)) less than 10 nM. For `NC(=O)c1ncc(N2CC[C@H]3CCN[C@H]3C2)nc1Nc1ccc(C2CCN(C3CCCC3)CC2)cc1` (racemic) [Example 291], the IC50 under setting [1] was in the range of 100 to 1000 nM. Take `CN1CCN([C@@H]2CCCN(c3cnc(C(N)=O)c(Nc4ccc(C5CCN(C6CC6)CC5)cc4)n3)C2)C1=O` [Example 259, (R)-3-(4-(1-cyclopropylpiperidin-4-yl)phenylamino)-5-(3-(3-methyl-2-oxoimidazolidin-1-yl)piperidin-1-yl)pyrazine-2-carboxamide]: the IC50 under setting [1] was less than 10 nM and the IC50 (read-out: Btk (IC50)) was less than 10 nM.

As to `C[C@@H]1[C@H](NC(=O)N(C)C)CCCN1c1cnc(C(N)=O)c(Nc2ccc(C3(C#N)CCN(C4CCCC4)CC3)cc2)n1` [Example 250, 3-(4-(4-cyano-1-cyclopentylpiperidin-4-yl)phenylamino)-5-((2R,3R)-3-(3,3-dimethylureido)-2-methylpiperidin-1-yl)pyrazine-2-carboxamide], the IC50 runs as follows: under setting [1], less than 10 nM; (read-out: Btk (IC50)) less than 10 nM. For `CN(C)C(=O)N[C@@H]1CCCN(c2cnc(C(N)=O)c(Nc3ccc(N4CCN(C5CC5)CC4)cc3)n2)C1` [Example 214, (R)-3-(4-(4-cyclopropylpiperazin-1-yl)phenylamino)-5-(3-(3,3-dimethylureido)piperidin-1-yl)pyrazine-2-carboxamide], the half-inhibitory concentration (IC50) under setting [1] was less than 10 nM and the IC50 (read-out: Btk (IC50)) was less than 10 nM. As for `CN(C)C(=O)N[C@@H]1CCCN(c2cnc(C(N)=O)c(Nc3ccc(C4CCN(C(=O)C5CC5)CC4)cc3)n2)C1` [Example 171, (R)-3-(4-(1-(cyclopropanecarbonyl)piperidin-4-yl)phenylamino)-5-(3-(3,3-dimethylureido)piperidin-1-yl)pyrazine-2-carboxamide], the IC50 runs as follows: under setting [1], less than 10 nM; (read-out: Btk (IC50)) less than 10 nM. For `C[C@@H]1CCN(c2cnc(C(N)=O)c(Nc3ccc(C4CCN(C5CCCC5)CC4)cc3)n2)C[C@@H]1NC(=O)N(C)C` [Example 290, 3-(4-(1-cyclopentylpiperidin-4-yl)phenylamino)-5-((3R,4R)-3-(3,3-dimethylureido)-4-methylpiperidin-1-yl)pyrazine-2-carboxamide], under setting [1], the IC50 lay within 10 to 100 nM. For the compound `CN(C)C(=O)N[C@@H]1CCCN(c2cnc(C(N)=O)c(Nc3ccc(C(=O)N4CCCC4)cc3)n2)C1` [Example 195, (R)-5-(3-(3,3-dimethylureido)piperidin-1-yl)-3-(4-(pyrrolidine-1-carbonyl)phenylamino)pyrazine-2-carboxamide], the IC50 under setting [1] is less than 10 nM.

Turning to `CC1[C@H](NC(=O)C2CC2)CCCN1c1cnc(C(N)=O)c(Nc2ccc(C3CCN(C4CCCC4)CC3)cc2)n1` (stereo in doubt) [Example 349, (R)-3-(4-(1-cyclopentylpiperidin-4-yl)phenylamino)-5-(3-(cyclopropanecarboxamido)-2-methylpiperidin-1-yl)pyrazine-2-carboxamide], under setting [1], the half-maximal inhibitory concentration (IC50) is less than 10 nM. Consider `C[C@@H]1[C@H](NC(=O)N(C)C)CCCN1c1cnc(C(N)=O)c(Nc2ccc(C3(C#N)CCCC3)cc2)n1` [Example 248, 3-(4-(1-cyanocyclopentyl)phenylamino)-5-((2R,3R)-3-(3,3-dimethylureido)-2-methylpiperidin-1-yl)pyrazine-2-carboxamide], for which the IC50 is less than 10 nM under setting [1] and less than 10 nM (read-out: Btk (IC50)). For `COCCOc1ccc(Nc2nc(N3CCC[C@@H](NC(=O)c4ccc(OC)cc4)C3)cnc2C(N)=O)cc1` [Example 112, (R)-5-(3-(4-methoxybenzamido)piperidin-1-yl)-3-(4-(2-methoxyethoxy)phenylamino)pyrazine-2-carboxamide], the IC50 lay within 10 to 100 nM under setting [1] and 10 to 100 nM (read-out: Btk (IC50)). As for `COc1ccc(C(=O)N[C@@H]2CCCN(c3cnc(C(N)=O)c(Nc4ccc(N5CCOCC5)nc4)n3)C2)cc1` [Example 124, (R)-5-(3-(4-methoxybenzamido)piperidin-1-yl)-3-(6-morpholinopyridin-3-ylamino)pyrazine-2-carboxamide], the IC50 lay within 10 to 100 nM. Moreover, under setting [1], the IC50 was less than 10 nM. As to `COc1cc(Nc2nc(N3CCC[C@@H](NC(=O)N(C)C)C3)cnc2C(N)=O)ccc1C` [Example 183, (R)-5-(3-(3,3-dimethylureido)piperidin-1-yl)-3-(3-methoxy-4-methylphenylamino)pyrazine-2-carboxamide], the IC50 lay within 100 to 1000 nM. The concentration for half-maximal inhibition (IC50) under setting [1] was 100 to 1000 nM. As for `NC(=O)c1nnc(N2CCC[C@@H](NC(=O)c3ccc(C4CC4)cc3)C2)nc1Nc1ccc(C(=O)N2CCOCC2)cc1` [Example 11, (R)-3-(3-(4-cyclopropylbenzamido)piperidin-1-yl)-5-(4-(morpholine-4-carbonyl)phenylamino)-1,2,4-triazine-6-carboxamide], the half-inhibitory concentration (IC50) under setting [1] was less than 10 nM. Consider `NC(=O)c1nnc(N2CCC[C@@H](NC(=O)c3nccs3)C2)nc1Nc1ccc(C(=O)N2CCOCC2)cc1` [Example 16, (R)—N-(1-(6-carbamoyl-5-(4-(morpholine-4-carbonyl)phenylamino)-1,2,4-triazin-3-yl)piperidin-3-yl)thiazole-2-carboxamide], for which the IC50 under setting [1] was less than 10 nM. Turning to `CN(C)C(=O)N[C@@H]1CCCN(c2cnc(C(N)=O)c(Nc3ccc(S(C)(=O)=O)cc3)n2)C1` [Example 151, (R)-5-(3-(3,3-dimethylureido)piperidin-1-yl)-3-(4-(methylsulfonyl)phenylamino)pyrazine-2-carboxamide], the IC50 was less than 10 nM under setting [1] and less than 10 nM (read-out: Btk (IC50)). As for `CN(C/C=C/C(=O)N1CC[C@@H](Nc2nnc(C(N)=O)c(Nc3ccc(C(=O)N4CCOCC4)cc3)n2)C1)C1CC1` [Example 71, (R,E)-3-(1-(4-(cyclopropyl(methyl)amino)but-2-enoyl)pyrrolidin-3-ylamino)-5-(4-(morpholine-4-carbonyl)phenylamino)-1,2,4-triazine-6-carboxamide], the IC50 under setting [1] was in the range of 10 to 100 nM. Consider `C[C@@H]1[C@H](NC(=O)N(C)C)CCCN1c1cnc(C(N)=O)c(Nc2ccc(C3(C)CCN(C4CCC4)CC3)cc2)n1` [Example 246, 3-(4-(1-cyclobutyl-4-methylpiperidin-4-yl)phenylamino)-5-((2R,3R)-3-(3,3-dimethylureido)-2-methylpiperidin-1-yl)pyrazine-2-carboxamide], for which the IC50 runs as follows: under setting [1], less than 10 nM; (read-out: Btk (IC50)) less than 10 nM. On to `CN(C(=O)N[C@@H]1CCCN(c2cnc(C(N)=O)c(NC3CCCC3)n2)C1)c1ccccc1` [Example 351, (R)-3-(cyclopentylamino)-5-(3-(3-methyl-3-phenylureido)piperidin-1-yl)pyrazine-2-carboxamide], for which the IC50 under setting [1] lay within 1000 to 10000 nM. On to `CN1CCC(c2ccc(Nc3nc(N4CCC[C@@H](NC(=O)N(C)C)C4)cnc3C(N)=O)cc2)CC1` [Example 165], for which the IC50 under setting [1] is less than 10 nM. Consider `C[C@@H]1[C@H](NC(=O)N(C)C)CCCN1c1cnc(C(N)=O)c(Nc2ccc(C3(C(N)=O)CCN(C4CCCC4)CC3)cc2)n1` [Example 251, 3-(4-(4-carbamoyl-1-cyclopentylpiperidin-4-yl)phenylamino)-5-((2R,3R)-3-(3,3-dimethylureido)-2-methylpiperidin-1-yl)pyrazine-2-carboxamide], for which, where the note is “read-out: Btk (IC50)”, the IC50 is less than 10 nM.

Regarding `CCN(C)C(=O)N[C@@H]1CCCN(c2cnc(C(N)=O)c(Nc3ccc(C4CCN(C5CCCC5)CC4)cc3)n2)C1` [Example 297, (R)-3-(4-(1-cyclopentylpiperidin-4-yl)phenylamino)-5-(3-(3-ethyl-3-methylureido)piperidin-1-yl)pyrazine-2-carboxamide], the IC50 under setting [1] is less than 10 nM and the IC50 (read-out: Btk (IC50)) is less than 10 nM. For `COc1ccc(C(=O)N[C@@H]2CCCN(c3cnc(C(N)=O)c(Nc4ccc(C5CCN(C(C)=O)CC5)cc4)n3)C2)cc1` [Example 139, (R)-3-(4-(1-acetylpiperidin-4-yl)phenylamino)-5-(3-(4-methoxybenzamido)piperidin-1-yl)pyrazine-2-carboxamide], the half-maximal inhibitory concentration (IC50) by setting is: under setting [1], less than 10 nM; (read-out: Btk (IC50)) less than 10 nM. Consider `NC(=O)c1ncc(N2CCC[C@@H](NC(=O)c3ccc(Cl)cc3)C2)nc1Nc1ccc(C2CCN(C3CC3)CC2)cc1` [Example 311, (R)-5-(3-(4-chlorobenzamido)piperidin-1-yl)-3-(4-(1-cyclopropylpiperidin-4-yl)phenylamino)pyrazine-2-carboxamide], for which the IC50 by setting is: under setting [1], less than 10 nM; (read-out: Btk (IC50)) less than 10 nM. As for `CCC(=O)N1CCC(c2ccc(Nc3nc(N4CCC[C@@H](NC(=O)N(C)C)C4)cnc3C(N)=O)cc2)CC1` [Example 152, (R)-5-(3-(3,3-dimethylureido)piperidin-1-yl)-3-(4-(1-propionylpiperidin-4-yl)phenylamino)pyrazine-2-carboxamide], the 50% inhibitory concentration (IC50) reads like this: under setting [1], less than 10 nM; (read-out: Btk (IC50)) less than 10 nM. For the compound `CCOc1ccc(C(=O)N[C@@H]2CCCN(c3cnc(C(N)=O)c(Nc4ccc(C5CCN(C)CC5)cc4)n3)C2)cc1` [Example 169, (R)-5-(3-(4-ethoxybenzamido)piperidin-1-yl)-3-(4-(1-methylpiperidin-4-yl)phenylamino)pyrazine-2-carboxamide], under setting [1], the IC50 was less than 10 nM. Take `CN(C)C/C=C/C(=O)N1CCC[C@@H](N(C)c2cnc(C(N)=O)c(Nc3ccc(Oc4ccccc4)cc3)n2)C1` [Example 158, (R,E)-5-((1-(4-(dimethylamino)but-2-enoyl)piperidin-3-yl)(methyl)amino)-3-(4-phenoxyphenylamino)pyrazine-2-carboxamide]: the IC50 under setting [1] was less than 10 nM. On to `CC(C)C1CCN(C(=O)N[C@@H]2CCCN(c3nnc(C(N)=O)c(Nc4ccc(C(=O)N5CCOCC5)cc4)n3)C2)CC1` [Example 82, (R)-3-(3-(4-isopropylpiperidine-1-carboxamido)piperidin-1-yl)-5-(4-(morpholine-4-carbonyl)phenylamino)-1,2,4-triazine-6-carboxamide], for which the concentration for half-maximal inhibition (IC50) is, setting by setting: (Btk (IC50)) 10 to 100 nM; under setting [1], 10 to 100 nM.
